The values that follow are results of earlier work, collected in patent US20230165862A1, “CANCER THERAPY USING 3,5-DISUBSTITUTED BENZENE ALKYNYL COMPOUND AND MEK INHIBITOR” (TAIHO PHARMACEUTICAL CO., LTD., priority 2020, published 2023).

The conditions of data set [1]: human; 30 mg or more per dose twice daily.
The conditions of data set [2]: human; steady-state PK, dose of 40 mg in Stage 1 (21/7), once daily.
For data set [3] the following is noted: human; 0.5 mg or more per dose once daily.

Regarding `Cn1cnc2c(F)c(Nc3ccc(Br)cc3F)c(C(=O)NOCCO)cc21` [Binimetinib, 5-[(4-bromofluorophenyl)amino]-4-fluoro-N-(2-hydroxyethoxy)-1-methyl-1H-benzimidazole-6-carboxamide], in data set [1], the “Time a blood concentration of 18.45 ng/mL (corresponds to 100 nM) is achieved” value is listed as “more than 8 hours”. Turning to `O=C(c1ccc(F)c(F)c1Nc1ccc(I)cc1F)N1CC(O)([C@@H]2CCCCN2)C1` [Cobimetinib, [3,4-difluoro-2-[(2-fluoro-4-iodophenyl)amino]phenyl][3-hydroxy-3-[(2S)-2-piperidinyl]-1-azetidinyl]methanone], the “Time a concentration higher than 53 ng/mL (corresponds to 100 nM) is achieved” value in data set [2] is 14 h.

Regarding `CC(=O)Nc1cccc(-n2c(=O)n(C3CC3)c(=O)c3c(Nc4ccc(I)cc4F)n(C)c(=O)c(C)c32)c1` [Trametinib, N-(3-{3-cyclopropyl-5-[(2-fluoro-4-iodophenyl)amino]-6,8-dimethyl-2,4,7-trioxo-3,4,6,7-tetrahydropyrido[4,3-d]pyrimidin-1(2H)-yl}phenyl)acetamide], in data set [3], the “Time a blood concentration of 1.3 ng/mL (corresponds to 10 nM) is achieved” value is at least 24 h.
